Key:
[1] = Half-life in Sprague-Dawley rat at 2 mg/kg, iv measured at 5 to 600 min by LC-MS/MS analysis; assay type: ADME, organism-based; conditions: in vivo, time 5-600 min
[2] = AUC(0 to last) in Sprague-Dawley rat at 2 mg/kg, iv measured at 5 to 600 min by LC-MS/MS analysis; assay type: ADME, organism-based; parameters: dose 2 mg/kg, time upper 600 min, time lower 5 min, route iv; conditions: in vivo
[3] = AUC(0 to infinity) in Sprague-Dawley rat at 2 mg/kg, iv measured at 5 to 600 min by LC-MS/MS analysis; assay type: ADME, organism-based; parameters: time 5-600 min, dose 2 mg/kg, route iv; conditions: in vivo
[4] = Volume of distribution in Sprague-Dawley rat at 2 mg/kg, iv measured at 5 to 600 min by LC-MS/MS analysis; assay type: ADME, organism-based; conditions: in vivo, time 5-600 min
[5] = Clearance in Sprague-Dawley rat at 2 mg/kg, iv measured at 5 to 600 min by LC-MS/MS analysis; assay type: ADME, organism-based; conditions: in vivo, time 5-600 min
[6] = MRT (0 to last) in Sprague-Dawley rat at 2 mg/kg, iv measured at 5 to 600 min by LC-MS/MS analysis; assay type: ADME, organism-based; conditions: in vivo, time 5-600 min
[7] = MRT (0 to infinity) in Sprague-Dawley rat at 2 mg/kg, iv measured at 5 to 600 min by LC-MS/MS analysis; assay type: ADME, organism-based; conditions: in vivo, time 5-600 min
[8] = Half-life in Sprague-Dawley rat at 10 mg/kg, po measured at 15 to 720 min by LC-MS/MS analysis; assay type: ADME, organism-based; conditions: in vivo, time 15-720 min
[9] = Tmax in Sprague-Dawley rat at 10 mg/kg, po measured at 15 to 720 min by LC-MS/MS analysis; assay type: ADME, organism-based; conditions: in vivo, time 15-720 min
[10] = Cmax in Sprague-Dawley rat at 10 mg/kg, po measured at 15 to 720 min by LC-MS/MS analysis; assay type: ADME, organism-based; parameters: dose 10 mg/kg, time 15-720 min, route po; conditions: in vivo
[11] = AUC (0 to last) in Sprague-Dawley rat at 10 mg/kg, po measured at 15 to 720 min by LC-MS/MS analysis; assay type: ADME, organism-based; parameters: time upper 720 min, time lower 15 min, dose 10 mg/kg, route po; conditions: in vivo
[12] = AUC (0 to infinity) in Sprague-Dawley rat at 10 mg/kg, po measured at 15 to 720 min by LC-MS/MS analysis; assay type: ADME, organism-based; parameters: dose 10 mg/kg, time upper 720 min, time lower 15 min, route po; conditions: in vivo
[13] = MRT (0 to infinity) in Sprague-Dawley rat at 10 mg/kg, po measured at 15 to 720 min by LC-MS/MS analysis; assay type: ADME, organism-based; conditions: in vivo, time 15-720 min
[14] = system: Human immunodeficiency virus 1; assay: Antiviral activity against NNRTI-resistant HIV-1 harboring K103N mutant infected in human MT4 cells assessed as protection against virus-induced cytopathic effect incubated for 5 days by MTT assay; assay type: functional, organism-based; conditions: Human immunodeficiency virus 1, MT4, 120 h
[15] = system: Human immunodeficiency virus 1; assay: Antiviral activity against NNRTI-resistant HIV-1 harboring E138K mutant infected in human MT4 cells assessed as protection against virus-induced cytopathic effect incubated for 5 days by MTT assay; assay type: functional, organism-based; conditions: Human immunodeficiency virus 1, MT4, 120 h
[16] = Cytotoxicity against human MT4 cells assessed as reduction in cell viability incubated for 5 days by MTT assay; assay type: toxicity, cell-based; conditions: time 5 day
[17] = system: Human immunodeficiency virus 1; assay: Antiviral activity against NNRTI-resistant HIV-1 harboring L100I mutant infected in human MT4 cells assessed as protection against virus-induced cytopathic effect incubated for 5 days by MTT assay; assay type: functional, organism-based; conditions: Human immunodeficiency virus 1, MT4, 120 h
[18] = system: Human immunodeficiency virus 1; assay type: functional, organism-based; conditions: Human immunodeficiency virus 1, MT4, 120 h
[19] = system: Human immunodeficiency virus 1; assay type: functional, organism-based; conditions: Human immunodeficiency virus 1, MT4, 120 h; remark: listed apart in the source
[20] = system: Human immunodeficiency virus 1; assay: Antiviral activity against NNRTI-resistant HIV-1 harboring F227L and V106A double mutant infected in human MT4 cells assessed as protection against virus-induced cytopathic effect incubated for 5 days by MTT assay; assay type: functional, organism-based; conditions: Human immunodeficiency virus 1, MT4, 120 h
[21] = system: Human immunodeficiency virus 1; assay type: functional, organism-based; conditions: Human immunodeficiency virus 1, MT4, 120 h; remark: listed apart in the source
[22] = target: Human immunodeficiency virus type 1 reverse transcriptase (Human immunodeficiency virus 1, UniProt Q72547); assay: Inhibition of HIV-1 reverse transcriptase assessed as assessed as reduction of biotin-dUTP incorporation into […] incubated for 1 hrs by ELISA analysis
[23] = Metabolic stability in human plasma assessed as half-life incubated for 120 mins by LC-MS/MS analysis; assay type: ADME, cell-free
[24] = Metabolic stability in human plasma assessed as compound remaining incubated for 120 mins by LC-MS/MS analysis; assay type: ADME, cell-free; conditions: read-out: Stability
[25] = Metabolic stability in human liver microsomes assessed as half-life incubated for 60 mins in the presence of NADPH by LC-MS/MS analysis; assay type: ADME, Microsome; conditions: liver microsomes
[26] = Metabolic stability in human liver microsomes assessed as intrinsic clearance incubated for 60 mins in the presence of NADPH by LC-MS/MS analysis; conditions: liver microsomes
[27] = Metabolic stability in human liver assessed as intrinsic clearance incubated for 60 mins in the presence of NADPH by LC-MS/MS analysis; assay type: ADME, tissue-based; conditions: read-out: CLH
[28] = Metabolic stability in human liver microsomes assessed as compound remaining measured after 60 mins in the presence of NADPH by LC-MS/MS analysis; assay type: ADME, Microsome; conditions: liver microsomes, read-out: Stability
[29] = Acute toxicity in Kunming mouse assessed as effect on animal death at 1000 mg/kg, IG administered as single dose and measured after 7 days; assay type: organism-based; conditions: in vivo, po, 168 h, time 7 day
[30] = Acute toxicity in Kunming mouse assessed as effect on anorexia at 1000 mg/kg, IG administered as single dose and measured after 7 days; assay type: organism-based; conditions: in vivo, po, 168 h, time 7 day
[31] = Acute toxicity in Kunming mouse assessed as effect on lethargy at 1000 mg/kg, IG administered as single dose and measured after 7 days; assay type: organism-based; conditions: in vivo, po, 168 h, time 7 day
[32] = Acute toxicity in Kunming mouse assessed as effect on alopecia at 1000 mg/kg, IG administered as single dose and measured after 7 days; assay type: organism-based; conditions: in vivo, po, 168 h, time 7 day
[33] = Acute toxicity in Kunming mouse assessed as effect on dyspnea at 1000 mg/kg, IG administered as single dose and measured after 7 days; assay type: organism-based; conditions: in vivo, po, 168 h, time 7 day
[34] = Acute toxicity in Kunming mouse assessed as effect on body weight at 1000 mg/kg, IG administered as single dose and measured after 7 days; assay type: organism-based; conditions: in vivo, po, 168 h, time 7 day
[35] = Acute toxicity in Kunming mouse assessed as tolerance at 1000 mg/kg, IG administered as single dose and measured after 7 days; assay type: organism-based; conditions: in vivo, po, 168 h, time 7 day
[36] = Acute toxicity in Kunming mouse upto 1000 mg/kg, IG administered as single dose and measured after 7 days; assay type: organism-based; conditions: in vivo, po, 168 h, time 7 day
[37] = Subacute toxicity in Kunming mouse assessed as animal death at 50 mg/kg, IG administered via gavage every other day and measured after 14 days; assay type: organism-based; conditions: in vivo, po, 336 h, time 14 day
[38] = Subacute toxicity in Kunming mouse assessed as anorexia at 50 mg/kg, IG administered via gavage every other day and measured after 14 days; assay type: organism-based; conditions: in vivo, po, 336 h, time 14 day
[39] = Subacute toxicity in Kunming mouse assessed as lethargy at 50 mg/kg, IG administered via gavage every other day and measured after 14 days; assay type: organism-based; conditions: in vivo, po, 336 h, time 14 day
[40] = Subacute toxicity in Kunming mouse assessed as alopecia at 50 mg/kg, IG administered via gavage every other day and measured after 14 days; assay type: organism-based; conditions: in vivo, po, 336 h, time 14 day
[41] = Subacute toxicity in Kunming mouse assessed as dyspnoea at 50 mg/kg, IG administered via gavage every other day and measured after 14 days; assay type: organism-based; conditions: in vivo, po, 336 h, time 14 day
[42] = Subacute toxicity in Kunming mouse assessed as effect on body weight at 50 mg/kg, IG administered via gavage every other day and measured after 14 days; assay type: organism-based; conditions: in vivo, po, 336 h, time 14 day
[43] = Subacute toxicity in Kunming mouse assessed as at 50 mg/kg, po administered every other day and measured after 14 days; assay type: organism-based; conditions: in vivo, 336 h, time 14 day
[44] = Subacute toxicity in Kunming mouse assessed as histopathological change in heart at 50 mg/kg, IG administered via gavage every other day and measured after 14 days by H&E staining based analysis; assay type: organism-based; conditions: in vivo, po, 336 h, time 14 day
[45] = Subacute toxicity in Kunming mouse assessed as histopathological change in liver at 50 mg/kg, IG administered via gavage every other day and measured after 14 days by H&E staining based analysis; assay type: organism-based; conditions: in vivo, po, 336 h, time 14 day
[46] = Subacute toxicity in Kunming mouse assessed as histopathological change in spleen at 50 mg/kg, IG administered via gavage every other day and measured after 14 days by H&E staining based analysis; assay type: organism-based; conditions: in vivo, po, 336 h, time 14 day
[47] = Subacute toxicity in Kunming mouse assessed as histopathological change in lung at 50 mg/kg, IG administered via gavage every other day and measured after 14 days by H&E staining based analysis; assay type: organism-based; conditions: in vivo, po, 336 h, time 14 day
[48] = Subacute toxicity in Kunming mouse assessed as histopathological change in kidney at 50 mg/kg, IG administered via gavage every other day and measured after 14 days by H&E staining based analysis; assay type: organism-based; conditions: in vivo, po, 336 h, time 14 day
[49] = system: Human immunodeficiency virus 1; assay: microbe, parasite or virus in culture; conditions: Human immunodeficiency virus 1, IIIB, MT4, 120 h
Description: Antiviral activity against wild type HIV-1 IIIB infected in human MT4 cells assessed as protection against virus-induced cytopathic effect incubated for 5 days by MTT assay

CCC(=O)N1CCc2nc(Nc3ccc(C#N)cc3)nc(Oc3c(C)cc(C#N)cc3C)c2C1
half-life [1]: 56.5 min | AUC(0-t) [2]: 1730 ng·h/mL | AUC(0-inf) [3]: 1740 ng·h/mL | Vd [4]: 0.771 L/kg | clearance [5]: 19.4 mL/min/kg | MRT last [6]: 38.9 min | MRT inf [7]: 39.8 min | half-life [8]: 142 min | Tmax [9]: 30 min | Cmax [10]: 7.71 ng/mL | AUC(0-t) [11]: 16 ng·h/mL | AUC(0-inf) [12]: 23.4 ng·h/mL | MRT inf [13]: 3.57 h | EC50 [14]: 1.88 nM | EC50 [15]: 11 nM | CC50 at 120 h [16]: 10.8 µM | EC50 [17]: 14.6 nM | EC50 [18]: 14.9 nM | EC50 [19]: 10.9 nM | EC50 [20]: 38.8 nM | EC50 [21]: 31 nM | IC50 [22]: 70 nM | half-life [23]: > 289 min | remaining at 2 h [24]: 97.1% | half-life [25]: 10 min | microsomal CLint at 1 h [26]: 138 µL/min/mg | CLint scaled [27]: 125 mL/min/kg | remaining at 1 h [28]: 1.6% | Activity [29]: Non-Toxic | Activity [30]: Non-Toxic | Activity [31]: Non-Toxic | Activity [32]: Non-Toxic | Activity [33]: Non-Toxic | Activity [34]: Non-Toxic | Activity [35]: Non-Toxic | Activity [36]: Non-Toxic | Activity [37]: Non-Toxic | Activity [38]: Non-Toxic | Activity [39]: Non-Toxic | Activity [40]: Non-Toxic | Activity [41]: Non-Toxic | Activity [42]: Non-Toxic | Activity [43]: Non-Toxic | Activity [44]: Non-Toxic | Activity [45]: Non-Toxic | Activity [46]: Non-Toxic | Activity [47]: Non-Toxic | Activity [48]: Non-Toxic | EC50 [49]: 2.71 nM
